Test results published in ChEMBL document CHEMBL1201862, “PubChem BioAssay data set” (2004).
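Five concentrations, 48 hours, 96-well plates. Here, GI50 denotes the concentration required for 50% inhibition of growth.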 Activity calls are given as the source filed them. Rule as the data show it: active = GI50 up to about 1.1 µM and inactive = higher.

Legend:
Assay in all cases: NCI anticancer screen, dose series, 48 h
[1] = test system: DLD-1
[2] = test system: HOP-18
[3] = test system: KM-20L2
[4] = test system: M19-MEL
[5] = test system: SNB-78
[6] = test system: XF498
[7] = test system: DMS-114
[8] = test system: LXFL 529
[9] = test system: RXF 631

Measured: GI50

CC1OC(n2ccc(=O)[nH]c2=O)C=C(OC(=O)c2ccccc2)C1=O (centres undefined)
inactive: [1] > 100 µM | [2] 38.4 µM | [3] 73.5 µM | [4] > 100 µM | [5] > 100 µM | [6] 21.2 µM

CC(=O)OCC1OC(N=[N+]=[N-])C(OC(C)=O)C(OC(C)=O)C1OC1OC(COC(C)=O)C(OC(C)=O)C(OC(C)=O)C1OC(C)=O (centres undefined)
inactive: [7] > 100 µM | [3] > 100 µM | [8] > 100 µM | [4] > 100 µM | [9] > 100 µM | [5] 71.6 µM | [6] > 100 µM

C[Si](C)(C)/C=C/CN1C(=O)CCC1O (centres undefined)
inactive: [1] > 100 µM | [7] > 100 µM | [2] > 100 µM | [3] > 100 µM | [8] > 100 µM | [4] > 100 µM | [5] > 100 µM | [6] > 100 µM

FC(F)(F)c1cccc2ns[s+]c12
inactive: [1] 35 µM | [2] > 100 µM | [3] > 100 µM | [8] > 100 µM | [4] > 100 µM | [9] > 100 µM | [5] > 100 µM | [6] > 100 µM

CCOc1nc(OCC)nc(-c2cccn2-c2ccccc2)n1
inactive: [7] 27.7 µM | [4] 37.2 µM | [9] 57.5 µM | [5] 32.3 µM

Nn1c(S)nnc1N/N=C1/C(=O)Nc2c(Cl)cc(Cl)cc21
inactive: [1] > 100 µM | [7] > 100 µM | [2] > 100 µM | [3] 81.8 µM | [8] 59.7 µM | [4] > 100 µM | [5] > 100 µM

O=C(CC1C(=O)Nc2ccccc2[S+]1[O-])Nc1cc(Cl)ccc1Cl (centres undefined)
inactive: [1] > 100 µM | [7] > 100 µM | [3] > 100 µM | [8] > 100 µM | [4] > 100 µM | [9] > 100 µM | [5] > 100 µM | [6] > 100 µM

CCc1cccc(C(C)CC)c1NC(=O)CC1C(=O)Nc2ccccc2S1(=O)=O (centres undefined)
inactive: [1] 13.6 µM | [7] 13.5 µM | [3] 25.2 µM | [8] 11.2 µM | [4] 26.9 µM | [5] 14.2 µM | [6] > 100 µM

CCSc1nc(COC(=O)NC)c(COC(=O)NC)n1C
inactive: [1] > 92.3 µM | [7] 46.6 µM | [2] > 100 µM | [3] > 100 µM | [8] > 37.2 µM | [4] > 63.5 µM | [9] > 100 µM | [5] > 70.1 µM

O=C(c1ccncc1)n1nc(-c2ccccc2)c(/N=N/c2ccc([N+](=O)[O-])cc2)c1-c1ccccc1
inactive: [1] > 100 µM | [7] 24.4 µM | [8] 13.1 µM | [4] > 100 µM | [5] 14.8 µM | [6] 57.8 µM

O=C1CCC(Cl)=CC2CCCN12 (centres undefined)
inactive: [1] > 100 µM | [7] > 100 µM | [3] > 100 µM | [8] > 100 µM | [4] > 100 µM | [5] > 100 µM

COc1ccc(-c2c(C3=NCCCN3)nnn2-c2ccccc2)cc1
inactive: [1] > 100 µM | [7] > 100 µM | [2] > 100 µM | [3] > 100 µM | [8] > 100 µM | [4] > 100 µM | [5] > 100 µM | [6] > 100 µM

C=CCNC(=S)OCCCCCCCCCC
inactive: [1] 16.4 µM | [7] 17 µM | [2] 22.3 µM | [3] 18.6 µM | [8] 14.9 µM | [4] 17.6 µM | [5] 19.5 µM | [6] 16 µM

CN1CCc2c1nc(-c1ccccc1)c1c2N(C)CC1
inactive: [1] 45.3 µM | [2] 3.82 µM | [3] 52.8 µM | [8] 52.2 µM | [4] > 100 µM | [5] > 100 µM

Nc1ccc2nc(Nc3ccc(Cl)c(Cl)c3)cnc2c1
inactive: [1] 34.7 µM | [7] 10 µM | [4] 18.2 µM | [5] 24.6 µM

O=c1[nH]c(=O)n(C2CC(O)C(CS)O2)cc1F (centres undefined)
inactive: [1] > 100 µM | [7] > 100 µM | [2] > 100 µM | [3] 78.9 µM | [8] > 10 µM | [4] 77.6 µM | [5] > 100 µM | [6] > 100 µM
